The text below walks through data of patent US9017681B2, “Adenylyl cyclases as novel targets for antibactrial interventions” (Cornell Research Foundation, Inc., priority 2007, dated 2015).

Entries after “also recorded” stand apart in the source; their conditions may differ. Read-outs that look alike come from different tables or passages of the source.

One experiment deals with T1, human sAC (Homo sapiens, UniProt Q96PN6).
T1 construct: made in house
T1 sequence (Q96PN6 1-469 limits assumed): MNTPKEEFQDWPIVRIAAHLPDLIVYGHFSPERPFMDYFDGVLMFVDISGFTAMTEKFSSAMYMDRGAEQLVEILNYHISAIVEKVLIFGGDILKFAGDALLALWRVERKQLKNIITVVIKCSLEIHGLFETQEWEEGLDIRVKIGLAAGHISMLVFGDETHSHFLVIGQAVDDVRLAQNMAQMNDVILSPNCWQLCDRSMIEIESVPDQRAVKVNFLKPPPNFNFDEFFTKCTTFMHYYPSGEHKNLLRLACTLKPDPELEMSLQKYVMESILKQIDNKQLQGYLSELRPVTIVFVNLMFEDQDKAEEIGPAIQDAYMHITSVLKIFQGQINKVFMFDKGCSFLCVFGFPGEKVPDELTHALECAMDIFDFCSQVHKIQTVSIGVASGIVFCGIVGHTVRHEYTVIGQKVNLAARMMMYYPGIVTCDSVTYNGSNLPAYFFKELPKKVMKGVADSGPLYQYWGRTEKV
The experiment is described as follows: in vitro adenylyl cyclase assay with purified human sAC protein (cAMP by Correlate-EIA). The conditions noted are these: for inhibition at 100 µM: 100 μM of compound. It is filed as biochemical. The protocol:
Purified human sAC protein was used in an in vitro adenylyl cyclase assay. Purification of the protein is described in detail in Litvin et al. 2003. (J. Biol. Chem. 278:15922-15926). This paper also describes the general conditions for a sAC cyclase assay. The specific conditions for the in vitro assay are as follows.
For basal sAC activity, an assay master mixture with sufficient volume for all reactions was prepared containing:
100 U/ml creatine phosphokinase (CPK)
An aliquot of the master mixture was added to the purified human sAC. The assay mixture also included the indicated concentration of KH compound, or an equivalent volume of vehicle (i.e., DMSO) as control. The reaction was started by adding 5 mM ATP (total assay volume=100 μL). The reaction mixture was incubated at 30° C. for 30 minutes and then stopped by adding 100 μl […]. Stimulated assay conditions involve adding 40 mM bicarbonate and 5 mM CaCl2 to the above master mixture.
(§1) Cyclic AMP levels were measured in each sample using the Correlate-EIA Direct Cyclic AMP assay kit from Assay Designs as per manufacturers instructions.

Experiment [1] deals with P. aeruginosa CyaB (a Class III adenylyl cyclase). The experiment is described as follows: Pseudomonas adenylyl cyclase assay with purified His-CyaB. It is filed as biochemical, Pseudomonas aeruginosa. The conditions noted are these: increasing concentrations of compound, FIG. 1 / FIG. 2. The protocol: FIG. 1. […] The CyaB was heterologously expressed in E. coli as a poly-histidine tagged fusion protein and purified using a nickel column. Adenylyl cyclase activity was determined by measuring cyclic AMP levels using the Correlate-EIA Direct Cyclic AMP assay kit from Assay Designs as per manufacturers instructions.
FIG. 2. […] The CyaB was heterologously expressed in E. coli as a poly-histidine tagged fusion protein and purified using a nickel column. Adenylyl cyclase activity was determined by measuring cyclic AMP levels using the Correlate-EIA Direct Cyclic AMP assay kit from Assay Designs as per manufacturers instructions.
P. aeruginosa CyaB (a Class III adenylyl cyclase) was heterologously expressed in E. coli as a HIS-tagged, fusion protein. Expression of the fusion protein was induced by Isopropyl β-D-1-thiogalactopyranoside (IPTG) t at 21° C. (empirically found to be best temperature for expression). The His-CyaB fusion protein was purified using a nickel affinity column according to standard protocols in the absence of any reducing agent. Eluted protein was dialyzed into storage buffer consisting of: 50 mM Tris (pH 8.5), 10 mM NaCl, 2 mM MgCl2, and 25% glycerol.
The purified CyaB was assayed for cyclase activity as follows. […]
as §1

Where [2] appears, read: BASAL human sAC in vitro activity, read-out: % Inhibition (100 μM), hsACt-Basal.
The mark [3] stands for this setting: stimulated human sAC in vitro activity, read-out: % Inhibition (100 μM), hsACt-Stim.
The mark [4] stands for this setting: BASAL activity of human sAC in vitro (just Mg-ATP, no calcium or bicarbonate), read-out: hsACt-Basal approximate IC50 (or the dose range where the IC50 should lie).
Where [5] appears, read: stimulated activity of human sAC in vitro (calcium and bicarbonate stimulated), read-out: hsACt-Stim. approximate IC50 (or the dose range where the IC50 should lie).

As usually defined, the inhibition is the percentage by which the read-out fell short of the control. The IC50 is the concentration that inhibits the measured activity by half. Regarding `COc1ccc(C2=NN(C(=O)CSc3nc4ccccc4[nH]3)C(c3ccc(F)cc3)C2)cc1` (stereo not shown) [KH7.120], the inhibition at 100 µM at human sAC (setting [2]) and on human sAC (setting [3]) was 90% throughout. In addition, the IC50 at human sAC (setting [4]) and on human sAC (setting [5]) was 10 to 100 µM in each case. Also, in experiment [1], the “effect on CyaB adenylyl cyclase activity” value was “activator; also recorded: increase in the activity”.
For the compound `O=C(CSc1nc2ccccc2[nH]1)N/N=C/c1ccc(O)c(O)c1` [KH7.148], the inhibition at 100 µM on human sAC (setting [2]) turned out to be 70%; on human sAC (setting [3]), 80%. The results for the IC50 on human sAC (setting [4]) and on human sAC (setting [5]) were 10 to 100 µM and 1 to 10 µM, respectively. In experiment [1], the “effect on CyaB adenylyl cyclase activity” value was “inhibitor; also recorded: decrease in the activity”.
